Source: the NIST ThermoML archive (doi:10.1021/je034136z)
Where “and” joins values, the source holds several entries; their conditions need not be identical. Equal entries are not always repeated. ± gives the expanded uncertainty stated by the source. Values belong to the compound of their own block, whether it stands above or below them.

Details: Liquid

vapor or sublimation pressure (322.79 K): 605.14 ± 2 kPa
vapor or sublimation pressure (323.11 K): 608.94 ± 2 kPa
vapor or sublimation pressure (323.14 K): 608.84 ± 2 kPa and 609.14 ± 2 kPa
vapor or sublimation pressure (323.15 K): 611.04 ± 2.1 kPa
Compound: C=C(C)C [2-methylpropene]

vapor or sublimation pressure (323.14 K): 55.57 ± 0.41 kPa
Compound: CO [methanol]

vapor or sublimation pressure (323.11 K): 10.57 ± 0.34 kPa
Compound: CCC(C)O (centres undefined) [butan-2-ol]

vapor or sublimation pressure (323.16 K): 23.47 ± 0.35 kPa
Compound: CC(C)O [propan-2-ol]

vapor or sublimation pressure (322.78 K): 23.07 ± 0.35 kPa
Compound: CC(C)(C)O [2-methylpropan-2-ol]

vapor or sublimation pressure (323.17 K): 29.27 ± 0.36 kPa
Compound: CCO [ethanol]
